Source: patent publication EP4696689A1, “SALT FORM AND CRYSTAL FORM OF CHIRAL HETEROCYCLIC COMPOUND HAVING HEDGEHOG PATHWAY ANTAGONIST ACTIVITY” (Suzhou Kintor Pharmaceuticals, Inc., priority 2023, dated 2024)
Read-outs that look alike come from different tables or passages of the source.

Legend:
in vivo [1] = settings: rat, po, 10 mg/kg
Description: Solvent A: 0.5% CMC-Na +0.2% Tween80
Preparation method: 5 g of sodium carboxymethyl cellulose (CMC-Na) was accurately weighed, 2 mL of Tween 80 was added, 998 mL of purified water was added, stirred and evenly mixed on a magnetic stirrer, and stored at room temperature.
After administration, blood was taken at different time points through orbit, and the blood samples were placed in a tube containing heparin sodium (as an anticoagulant), centrifuged by a cryocentrifuge and then stored in an environment of -80°C. An appropriate amount of plasma sample (50 µL) was taken into which (200 µL) cold acetonitrile containing the internal standard was added. The plasma protein was precipitated by centrifugation for 10 minutes. Finally, 100 µL of the supernatant was added and diluted with 100 µL of pure water and then injected into an LC-MS/MS system for analysis.
LC-MS/MS analysis method: All samples were analyzed by an LC-MS/MS system of an API 3000 mass spectrometer equipped with an Agilent 1100 series of liquid phase systems (Agilent, Japan). Column: Agilent XORBAX, XDB-C8 (50×2.1mm;3.5µm). Column temperature: room temperature, flow rate: 0.4 mL/min, total running time:7min.
For the quantitative analysis of MS/MS, the API3000 mass spectrometer is operated in the positive ESI mode with multiple reaction monitoring (MRM). All compounds and internal standards were monitored with a dwell time of 200 milliseconds. Other MS/MS parameter settings are as follows: Nebulizer gas (NEB): 12 psi, Gas curtain gas (CUR): 7 psi, Collision gas (CAD): 4 psi, Ion spray voltage: 5000V, Ion source temperature:500 °C. For the transitions of the selected ions, each analyte was tested under the optimal sensitivity clustering potential (DP) and collision energy (CE). Finally, the data were collected and processed using the SCIEX Analyst 1.5.2 data processing software system.
Preparation method: 0.1 g of sodium carboxymethyl cellulose (CMC-Na) was accurately weighed, 20 ml of purified water was added, and ultrasonic stirring was performed to dissolve it to obtain 0.5% CMC-Na.

[2] = dynamic solubility in water and three biological solvents; type: physicochemical; settings: 37°C, feed 5 mg/ml, read-out: S: solubility
Description: Finally, the volume is fixed with purified water.
(§1) 0.17 g of sodium dihydrogen phosphate (NaH2PO4, anhydrous), 0.021 g of sodium hydroxide and 0.31 g of sodium chloride were weighed into a 50 mL volumetric flask respectively, about 48 mL of purified water was added for dissolution, the pH was adjusted to exactly 6.5 with 1M hydrochloric acid or 1M sodium hydroxide, and the volume was fixed with purified water. 0.11 g of SIF powder was then added, stirred and sonicated to completely dissolve the powder. The solution can be used only after being placed at room temperature for two hours to reach equilibrium.
as §1, with “0.41 mL” for “0.17 g”, “glacial acetic acid, 0.20” for “sodium dihydrogen phosphate (NaH2PO4, anhydrous), 0.021”, “0.59” for “0.31”, “respectively, and” for “respectively,”, “5.0” for “6.5”, “0.56” for “0.11”
The solubility results of the two samples in SGF, FASSIT and FeSSIF are similar. […] Table 4-1 Summary of the dynamic solubility test results

[3] = solid state stability (XRPD, HPLC, chiral purity); type: physicochemical
Description: The purity test, the dynamic solubility and the stability test are tested by the Agilent 1260/1100 high performance liquid chromatograph, and the analysis conditions and chiral purity test analysis conditions of the high performance liquid chromatography test are respectively as follows.
After placing the amorphous free base and fumarate crystal form F of the compound of formula (I) at 25°C/60% RH and 40°C/75% RH for 1 week, the physical and chemical stability of the sample is detected by XRPD and HPLC (at the same time the chiral purity of the sample is tested). […] Table 4-2 Solid Stability Evaluation Summary

[4] = test system: primary extracted medulloblastoma cells; test: antitumor efficacy against medulloblastoma, subcutaneous xenograft model; type: in vivo, CB-17/SCID mice; settings: for Tumor Volume at Day 0 (mm^3): before treatment; for T/C (%) / Tumor Volume at Dosing Endpoint (mm^3) / TGI (%): 17 days; for Tumor Volume at Dosing Endpoint (mm^3): volume on Day 18; for Fold Change in Tumor Volume: Day 18 compared to Day 0; for anti-tumor efficacy compared to the high-dose GDC-0449 (10 mg/kg) group: after 17 days of treatment;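 as to all read-outs here: male CB-17/SCID mice bearing subcutaneous tumors, randomized at 150-300 mm^3, tumor volume from caliper diameters as 0.5 × longest × shortest squared, measured twice weekly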
Description: 60 male CB-17/SCID mice (aged 6-8 weeks) were purchased from Shanghai SLAC Laboratory Animal Co., Ltd. Animals were housed in individually ventilated cages (IVCs), with five mice per cage. Housing conditions were as follows: temperature was maintained at 20-26°C; humidity was 30-70%; 12 hours of light and 12 hours of darkness.
CB-17/SCID mice were subcutaneously injected with primary extracted medulloblastoma cells. After 3-4 weeks, a subset of mice developed tumors with volumes ranging from 150 to 300 mm^3.
30 mice with uniform tumor sizes (Coefficient of Variation, CV < 30%, CV = Standard Deviation / Mean) were selected from this group. These mice were selected and randomly divided into five experimental groups according to Table 6-2, with six mice in each group and one group per cage. Drug administration began the day after grouping and lasted for 17 days with a frequency of twice daily (BID). The drug was discontinued after 17 days to observe tumor changes.
During routine examinations, animals were monitored for tumor growth, activity level, food intake, water consumption, weight gain or loss, eye, fur, and any other abnormal behaviors. Animal deaths and clinical abnormalities were recorded. Tumor volume (TV) was measured twice weekly using calipers and calculated using the formula: TV = 0.5a × b^2, wherein a is the longest diameter of the tumor and b is the shortest diameter. Body weight was recorded twice weekly, concurrently with tumor volume measurements.
If the animals' weight subsequently recovered to within a 10% loss compared to baseline, whether to continue the administration was based on the animals' condition. The in vivo experimental for an individual animal or the entire group would be terminated under the following conditions. The animals will be euthanized before death or coma. • ➢ If the animals' health condition deteriorated continuously, causing persistent suffering and is unable to eat or drink. • ➢ If the animal became emaciated, with a body weight loss exceeding 20% compared to the initial administration. • ➢ If the tumor volume of an individual mouse exceeded 3000 mm^3 or the mean tumor volume of the entire group exceeded 2000 mm^3.
All data were analyzed using GraphPad Prism 5.0. P value < 0.05 was considered statistically significant.
Primary tumor cells were extracted from Math1-Cre/Ptch1 ^C/C mice with spontaneous medulloblastoma and subcutaneously inoculated into CB-17/SCID mice to establish a xenograft model of medulloblastoma.

[5] = SCID tumor-bearing mice, i.g. BID × 3 days
[6] = hygroscopicity evaluation by dynamic vapor sorption (DVS); type: physicochemical
Description: The DVS curves were collected on a DVS Intrinsic from SMS (Surface Measurement Systems).The relative humidity at 25°C was corrected with the deliquescence points of LiCl, Mg (NO3)2 and KCl.

[7] = suspension competition experiment (thermodynamic stability of fumarate crystal forms); type: physicochemical; settings: from room temperature to 50°C
Description: To study the thermodynamic stability relationship among the crystal forms of the fumarate salt, a suspension competition experiment at room temperature and 50°C is performed on the fumarate salt anhydrous crystal forms A, B, C and F. […] Table 3-1 Summary of Suspension Contention Tests

in vivo [8] = settings: mouse, in vivo, po, 10 mg/kg
Description: The collected plasma samples were subjected to a protein precipitation method by using an organic reagent according to the following method to extract test article in the plasma, and the extracted sample was subjected to quantitative concentration analysis through the LC-MS/MS.
Meanwhile, an accompanying standard curve and quality control samples were prepared for quantitative analysis.
The fumarate salt form F of the compound of formula (I) Group: 50 µL of plasma at each time point was taken, 400 µL of acetonitrile was added, vortex mixing and centrifugation was performed at 10000 rpm for 10 min, and a 200 µL supernatant for LC-MS/MS analysis was taken. Meanwhile, an accompanying standard curve and quality control samples were prepared for quantitative analysis.
According to the plasma drug concentration data obtained through analysis, the main pharmacokinetic parameters were calculated according to the non-atrioventricular model by using Kinetic software (Version 5.0).

[9] = body weight of tumor-bearing mice during treatment; settings: for Mean Body Weight at Day 0: before treatment; for Body Weight Change Rate (%) / Mean Body Weight at Dosing Endpoint: 17 days
[10] = pH 1.8, simulated gastric fluid, thermodynamic from solid, SGF
[11] = pH 5, thermodynamic from solid, FeSSIF
[12] = pH 6.5, thermodynamic from solid, FaSSIF
[13] = water, thermodynamic from solid, H2O

Cc1cnc(-c2cc(N3CCc4nc(N5CCC(O)CC5)ncc4[C@H]3C)ncc2Cl)c(C)c1 [Fumarate crystal form F]
AUC(0-t) at 24 h (in vivo [1]): 14300 ng·h/mL
Cmax (in vivo [1]): 2850 ng/mL
bioavailability (in vivo [1]): 97.5%
solubility at 1 h [2, 10]: 3600 µg/mL
solubility at 2 h [2, 10]: 3500 µg/mL
solubility at 4 h [2, 10]: 3600 µg/mL
solubility at 24 h [2, 10]: 3500 µg/mL
solubility at 1 h [2, 11]: 2500 µg/mL
solubility at 2 h [2, 11]: 2800 µg/mL
solubility at 4 h [2, 11]: 3100 µg/mL
solubility at 24 h [2, 11]: 3100 µg/mL
solubility at 1 h [2, 12]: 220 µg/mL
solubility at 2 h [2, 12]: 210 µg/mL
solubility at 4 h [2, 12]: 230 µg/mL
solubility at 24 h [2, 12]: 210 µg/mL
solubility at 1 h [2, 13]: 110 µg/mL
solubility at 2 h [2, 13]: 130 µg/mL
solubility at 4 h [2, 13]: 140 µg/mL
solubility at 24 h [2, 13]: 150 µg/mL
Chiral purity (%) ([3]; 25°C/60%RH_1w): 98.6%
Purity (Area%) ([3]; 25°C/60%RH_1w): 99.7 Area%
Purity/Initial purity (%) ([3]; 25°C/60%RH_1w): 100.1%
Chiral purity (%) ([3]; 40°C/75%RH_1w): 98.6%
Purity (Area%) ([3]; 40°C/75%RH_1w): 99.6 Area%
Purity/Initial purity (%) ([3]; 40°C/75%RH_1w): 100.0%
Chiral purity (%) ([3]; Start): 98.6%
Purity (Area%) ([3]; Start): 99.6 Area%
Tumor Volume at Day 0 (mm^3) ([4]; 1 mg/kg group): 220.5 ± 43.7 mm^3
Tumor Volume ([4]; 1 mg/kg i.g. BID × 17 days, day 0 after grouping): 220.5 ± 43.7 mm3
Tumor Volume ([4]; 1 mg/kg i.g. BID × 17 days, day 3): 244.9 ± 82.4 mm3
Tumor Volume ([4]; 1 mg/kg i.g. BID × 17 days, day 6): 483.8 ± 252.8 mm3
Tumor Volume ([4]; 1 mg/kg i.g. BID × 17 days, day 9): 759.7 ± 401.1 mm3
Tumor Volume ([4]; 1 mg/kg i.g. BID × 17 days, day 12): 1234.4 ± 582.9 mm3
Tumor Volume ([4]; 1 mg/kg i.g. BID × 17 days, day 15): 2056.6 ± 1094.9 mm3
Tumor Volume ([4]; 1 mg/kg i.g. BID × 17 days, day 18): 2868.8 ± 1372.9 mm3
Tumor Volume ([4]; 1 mg/kg i.g. BID × 17 days, day 21, drug withdrawal observation): 4176.0 ± 1871.1 mm3
T/C (%) ([4]; 1 mg/kg i.g. BID): 124.5%
Tumor Volume at Dosing Endpoint (mm^3) ([4]; 1 mg/kg i.g. BID): 2868.8 ± 1372.9 mm^3
Fold Change in Tumor Volume ([4]; 1 mg/kg i.g. BID): 12.80 ± 4.95
Tumor Volume at Day 0 (mm^3) ([4]; 3 mg/kg group): 244.1 ± 17.1 mm^3
Tumor Volume ([4]; 3 mg/kg i.g. BID × 17 days, day 0 after grouping): 244.1 ± 17.1 mm3
Tumor Volume ([4]; 3 mg/kg i.g. BID × 17 days, day 3): 205.3 ± 26.0 mm3
Tumor Volume ([4]; 3 mg/kg i.g. BID × 17 days, day 6): 147.7 ± 56.5 mm3
Tumor Volume ([4]; 3 mg/kg i.g. BID × 17 days, day 9): 140.1 ± 62.3 mm3
Tumor Volume ([4]; 3 mg/kg i.g. BID × 17 days, day 12): 112.7 ± 46.9 mm3
Tumor Volume ([4]; 3 mg/kg i.g. BID × 17 days, day 15): 125.4 ± 58.9 mm3
Tumor Volume ([4]; 3 mg/kg i.g. BID × 17 days, day 18): 150.4 ± 77.2 mm3
Tumor Volume ([4]; 3 mg/kg i.g. BID × 17 days, day 21, drug withdrawal observation): 199.3 ± 93.7 mm3
Tumor Volume ([4]; 3 mg/kg i.g. BID × 17 days, day 23, drug withdrawal observation): 271.2 ± 131.7 mm3
Tumor Volume ([4]; 3 mg/kg i.g. BID × 17 days, day 26, drug withdrawal observation): 604.1 ± 328.5 mm3
Tumor Volume ([4]; 3 mg/kg i.g. BID × 17 days, day 29, drug withdrawal observation): 887.6 ± 407.9 mm3
Tumor Volume ([4]; 3 mg/kg i.g. BID × 17 days, day 32, drug withdrawal observation): 1209.2 ± 513.6 mm3
Tumor Volume ([4]; 3 mg/kg i.g. BID × 17 days, day 35, drug withdrawal observation): 1645.0 ±560.6 mm3
Tumor Volume ([4]; 3 mg/kg i.g. BID × 17 days, day 38, drug withdrawal observation): 2352.0 ± 963.1 mm3
T/C (%) ([4]; 3 mg/kg i.g. BID): 6.03%
TGI (%) ([4]; 3 mg/kg i.g. BID): 93.97%
Tumor Volume at Dosing Endpoint (mm^3) ([4]; 3 mg/kg i.g. BID): 150.4 ± 77.2 mm^3
Fold Change in Tumor Volume ([4]; 3 mg/kg i.g. BID): 0.62 ± 0.33
Tumor Volume at Day 0 (mm^3) ([4]; 10 mg/kg group): 234.5 ± 33.6 mm^3
Tumor Volume ([4]; 10 mg/kg i.g. BID × 17 days, day 0 after grouping): 234.5 ± 33.6 mm3
Tumor Volume ([4]; 10 mg/kg i.g. BID × 17 days, day 3): 187.9 ± 44.7 mm3
Tumor Volume ([4]; 10 mg/kg i.g. BID × 17 days, day 6): 98.7 ± 28.9 mm3
Tumor Volume ([4]; 10 mg/kg i.g. BID × 17 days, day 9): 47.9 ± 29.8 mm3
Tumor Volume ([4]; 10 mg/kg i.g. BID × 17 days, day 12): 24.5 ± 14.9 mm3
Tumor Volume ([4]; 10 mg/kg i.g. BID × 17 days, day 15): 10.9 ± 5.1 mm3
Tumor Volume ([4]; 10 mg/kg i.g. BID × 17 days, day 18): 8.8 ± 6.1 mm3
Tumor Volume ([4]; 10 mg/kg i.g. BID × 17 days, day 21, drug withdrawal observation): 14.7 ± 10.1 mm3
Tumor Volume ([4]; 10 mg/kg i.g. BID × 17 days, day 23, drug withdrawal observation): 16.6 ± 9.7 mm3
Tumor Volume ([4]; 10 mg/kg i.g. BID × 17 days, day 26, drug withdrawal observation): 18.1 ± 11.5 mm3
Tumor Volume ([4]; 10 mg/kg i.g. BID × 17 days, day 29, drug withdrawal observation): 43.9 ± 37.3 mm3
Tumor Volume ([4]; 10 mg/kg i.g. BID × 17 days, day 32, drug withdrawal observation): 92.2 + 101.2 mm3
Tumor Volume ([4]; 10 mg/kg i.g. BID × 17 days, day 35, drug withdrawal observation): 214.8 + 254.9 mm3
Tumor Volume ([4]; 10 mg/kg i.g. BID × 17 days, day 38, drug withdrawal observation): 347.4 + 445.9 mm3
T/C (%) ([4]; 10 mg/kg i.g. BID): 0.39%
TGI (%) ([4]; 10 mg/kg i.g. BID, TGI = [1 - RTV(treatment group) / RTV(control group)] × 100%): 99.61%
Tumor Volume at Dosing Endpoint (mm^3) ([4]; 10 mg/kg i.g. BID): 8.8 ± 6.1 mm^3
Fold Change in Tumor Volume ([4]; 10 mg/kg i.g. BID): 0.04 ± 0.03
anti-tumor efficacy compared to the high-dose GDC-0449 (10 mg/kg) group ([4]; high-dose (10 mg/kg)): significantly superior
inhibitory effect on tumor growth versus vehicle control group ([4]; low dose (1 mg/kg)): did not show a significant inhibitory effect
recurrent tumor volume compared with the GDC-0449 group at the same time ([4]; medium and high-dose group, post-treatment observation period): significantly lower
anti-tumor efficacy compared to the high-dose GDC-0449 (10 mg/kg) group ([4]; medium-dose (3 mg/kg)): significantly superior
abnormal behaviors or animal deaths during the administration period [5]: no abnormal behaviors or animal deaths
moisture adsorption ([6]; 25°C/80% RH, listed as fumarate crystal form F of the compound of formula (I)): 0.3%
Water adsorption (25°C/80%RH) ([6]; 25°C/80%RH): 0.3
thermodynamic stability among anhydrous crystal forms A, B, C and F [7]: most thermodynamically stable
AUC(0-inf) (in vivo [8]): 16700 ng·h/mL
AUC(0-t) (in vivo [8]): 7500 ng·h/mL
Cmax (in vivo [8]): 2410 ng/mL
MRT (in vivo [8]): 15.6 h
Tmax (in vivo [8]): 0.25 h
half-life (in vivo [8]): 12.4 h
Mean Body Weight at Day 0 ([9]; 1 mg/kg group): 23.9 ± 3.1 g
Body Weight Change Rate (%) ([9]; 1 mg/kg i.g. BID): 17.2%
Mean Body Weight at Dosing Endpoint ([9]; 1 mg/kg i.g. BID): 28.0 ± 2.2 g
Mean Body Weight at Day 0 ([9]; 3 mg/kg group): 24.6 ± 1.8 g
Body Weight Change Rate (%) ([9]; 3 mg/kg i.g. BID): 8.5%
Mean Body Weight at Dosing Endpoint ([9]; 3 mg/kg i.g. BID): 26.7 ± 2.2 g
Mean Body Weight at Day 0 ([9]; 10 mg/kg group): 22.4 ± 2.1 g
Body Weight Change Rate (%) ([9]; 10 mg/kg i.g. BID): 13.8%
Mean Body Weight at Dosing Endpoint ([9]; 10 mg/kg i.g. BID): 25.5 ± 1.7 g
impact on the body weight of tumor-bearing mice during the treatment period ([9]; administered doses, i.g. BID × 17 days): no significant impact
